Measurements reported in US20020183384A1, “Methods of treating nuclear factor-kappa B mediated diseases and disorders” (priority 2001, published 2002).

The compounds below were run on NF-κB mediated transcription (assay: NF-κB driven β-lactamase reporter assay in ECV-304 NF-κB.βlaZ cells (AURORA CCF2 fluorescence)). Details: Homo sapiens, ECV-304, 6 h, 10 μM compound; ECV-304 NF-κB.βlaZ cells stimulated with 10 ng/mL TNF-α or 100 pg/mL IL-1β, 6 hours at 37° C.; inhibition of maximum blue/green ratio; read-out: Percent Inhibition at 10 μM.
Assay type: cell-based, human
Outline: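 ECV-304 cells (clone 1E8) stably carrying a β-lactamase reporter driven by 5 HIV-1 NF-κB sites, plated in M-199 with 2% FBS, compound at 10 μM final. CCF2 read at 395 nm excitation, blue 460 nm/green 530 nm emission ratio; IC50 from dose-response curve.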

Row | SMILES | inhibition at 10 µM
1 | CC(C)c1cc(C(C)C)c(CC(=O)N(C)S(=O)(=O)Oc2c(C(C)C)cccc2C(C)C)c(C(C)C)c1 [Example 181, Methyl-[(2,4,6-triisopropyl-phenyl)-acetyl]-sulfamic acid 2,6-diisopropyl-phenyl ester] | < 10%
2 | CC(C)c1cc(C(C)C)c(CC(=O)NS(=O)(=O)Oc2c(C(C)C)cc(NC(=O)C(CCCCNC(=O)OC(C)(C)C)NC(=O)OC(C)(C)C)cc2C(C)C)c(C(C)C)c1 (centres unmarked) [Example 195, [5-tert-Butoxycarbonylamino-5-(3,5-diisopropyl-4-{[(2,4,6-triisopropyl-phenyl)-acetyl]sulfamoyloxy}-phenylcarbamoyl)-pentyl]-carbamic acid tert-butyl ester] | 91.8%
3 | CC(C)c1cc(C(C)C)c(CC(=O)NS(=O)(=O)Oc2c(C(C)C)cc(C(C)(C)C)cc2C(C)C)c(C(C)C)c1 [Example 190, [(2,4,6-Triisopropyl-phenyl)-acetyl]-sulfamic acid 4-tert-butyl-2,6-diisopropyl-phenyl ester] | 27.6%
4 | CC(C)c1cc(C(C)C)c(CC(=O)NS(=O)(=O)Oc2c(C(C)C)cc(C#N)cc2C(C)C)c(C(C)C)c1 [Example 212, [(2,4,6-Triisopropyl-phenyl)-acetyl]-sulfamic acid 4-cyano-2,6-diisopropyl-phenyl ester] | 60.2%
5 | COc1ccc(OC)c(CC(=O)NS(=O)(=O)Oc2c(C(C)C)cccc2C(C)C)c1 [Example 145, [(2,5-Dimethoxy-phenyl)-acetyl]-sulfamic acid 2,6-diisopropyl-phenyl ester] | < 10%
6 | CCCCN(CCCC)S(=O)(=O)NC(=O)Nc1c(C(C)C)cccc1C(C)C [Example 21, N-[2,6-bis(1-methylethyl)phenyl]-N′-[(dibutylamino)sulfonyl]-urea] | 29.4%
7 | CCc1cccc(CC)c1COC(=O)NS(=O)(=O)Oc1c(C(C)C)cccc1C(C)C [Example 140, Carbamic acid, [[2,6-bis(1-methylethyl)phenoxy]sulfonyl]-, (2,6-diethylphenyl)methyl ester] | 38.7%
8 | CCCN(CCC)S(=O)(=O)NC(=O)Nc1c(C(C)C)cccc1C(C)C [Example 77, Urea, N-[2,6-bis(1-methylethyl)phenyl]-N′-[(dipropylamino)sulfonyl]-] | < 10%
9 | CC(C)c1cccc(C(C)C)c1NC(=O)NS(=O)(=O)N(C(C)C)C(C)C [Example 20, N-[2,6-bis(1-methylethyl)phenyl]-N′-[[bis(1-methylethyl)amino]-sulfonyl]-urea] | < 10%
10 | CC(C)c1cc(C(C)(C)O)cc(C(C)C)c1CC(=O)NS(=O)(=O)Oc1c(C(C)C)cccc1C(C)C [Example 202, {[4-(1-Hydroxy-1-methyl-ethyl)-2,6-diisopropyl-phenyl]-acetyl}-sulfamic acid 2,6-diisopropyl-phenyl ester] | 25.4%
11 | COC(=O)NS(=O)(=O)Nc1c(C(C)C)cccc1C(C)C [Example 54, Carbamic acid, [[[2,6-bis(1-methylethyl)phenyl]amino]sulfonyl]-, methyl ester] | < 10%
12 | CC(C)c1cccc(C(C)C)c1OS(=O)(=O)NC(=O)c1cc2ccccc2oc1=O [Example 237, (2-Oxo-2H-chromene-3-carbonyl)-sulfamic acid 2,6-diisopropyl-phenyl ester] | 57.1%
13 | CC(C)c1cc(C(C)C)c(C(O)C(=O)NS(=O)(=O)Oc2c(C(C)C)cccc2C(C)C)c(C(C)C)c1 (centres unmarked) [Example 162, [Hydroxy-(2,4,6-triisopropyl-phenyl)-acetyl]-sulfamic acid 2,6-diisopropyl-phenyl ester] | 75.3%
14 | CCCCCCCCCCCCCC(C)(C)S(=O)(=O)NC(=O)Nc1c(C(C)C)cccc1C(C)C [Example 248, N-[2,6-bis(1-methylethyl)phenyl]-N′-(2-methyl-2-pentadecylsulfonyl)urea] | 11.4%
15 | CC(C)c1cc(C(C)C)c(CC(=O)NS(=O)(=O)Oc2c(C(C)C)cc(OCCCN)cc2C(C)C)c(C(C)C)c1 [Example 208, [2-(2,4,6-Triisopropyl-phenyl)-acetyl]-sulfamic acid 4-(3-amino-propoxy)-2,6-diisopropyl-phenyl ester] | 22.4%
16 | CC(C)c1cccc(C(C)C)c1OS(=O)(=O)NC(=O)C1c2ccccc2-c2ccccc21 [Example 174, (9H-Fluorene-9-carbonyl)-sulfamic acid 2,6-diisopropyl-phenyl ester] | 32.2%
17 | CCCCCCCCCCCCCCCCCCOS(=O)(=O)NC(=O)Nc1c(C(C)C)cccc1C(C)C [Example 60, Sulfamic acid, [[[2,6-bis(1-methylethyl)phenyl]amino]carbonyl]-, octadecyl ester] | < 10%
18 | CCCCCCCCCCCCCCCCC(C)S(=O)(=O)NC(=O)Nc1c(OC)cc(OC)cc1OC (centres unmarked) [Example 247, N-[2,4,6-trimethoxyphenyl]-N′-(2-octadecylsulfonyl)urea] | 14.8%
19 | CCCCCCCCCCCCCCCCC(C)S(=O)(=O)NC(=O)Nc1c(C(C)C)cccc1C(C)C (centres unmarked) [Example 246, N-[2,6-bis(1-methylethyl)phenyl]-N′-(2-octadecylsulfonyl)urea] | < 10%
20 | CC(C)c1cc(C(C)C)c(CC(=O)NS(=O)(=O)Oc2c(C(C)C)cc(NC(=O)[C@@H](N)CCC(N)=O)cc2C(C)C)c(C(C)C)c1 [Example 231, [2-(2,4,6-Triisopropyl-phenyl)-acetyl]-sulfamic acid 4-((S)-2-amino-4-carbamoyl-butyrylamino)-2,6-diisopropyl-phenyl ester; compound with trifluoro-acetic acid] | 78.1%
21 | CC(C)c1cccc(C(C)C)c1NS(=O)(=O)NC(=O)NC(c1ccccc1)c1ccccc1 [Example 18, N-[[[2,6-bis(1-methylethyl)phenyl]amino]sulfonyl]-N′-(diphenylmethyl)-urea] | 35.9%

Same assay, conditions: Homo sapiens; 10 μM compound; ECV-304 NF-κB.βlaZ cells stimulated with 10 ng/mL TNF-α or 100 pg/mL IL-1β, 6 hours at 37° C.; inhibition of maximum blue/green ratio; read-out: Percent Inhibition at 10 μM

Row | SMILES | inhibition at 10 µM
22 | Cc1cccc(C)c1OC(=O)NS(=O)(=O)Oc1c(C(C)C)cccc1C(C)C [Example 179, Carbamic acid, [[2,6-bis(1-methylethyl)phenoxy]sulfonyl]-, 2,6-dimethylphenyl ester] | < 10%
23 | CC(C)c1cccc(C(C)C)c1OS(=O)(=O)NC(=O)Oc1c(F)c(F)c(F)c(F)c1F [Example 152, Carbamic acid, [[2,6-bis(1-methylethyl)phenoxy]sulfonyl]-, pentafluorophenyl ester] | < 10%
24 | CC(C)c1cccc(C(C)C)c1OC(=O)NS(=O)(=O)N(C(C)C)C(C)C [Example 62, Carbamic acid, [[bis(1-methylethyl)amino]sulfonyl]-, 2,6-bis(1-methylethyl)-phenyl ester] | < 10%
25 | CC(C)c1cccc(C(C)C)c1NS(=O)(=O)NC(=O)Oc1c(C(C)(C)C)cccc1C(C)(C)C [Example 5, Carbamic acid, [[[2,6-bis(1-methylethyl)phenyl]amino]sulfonyl]-, 2,6-bis(1,1-dimethylethyl)phenyl ester] | 56.4%
26 | CC(C)c1cccc(C(C)C)c1OS(=O)(=O)NC(=O)Oc1c(C(C)(C)C)cc(SSc2cc(C(C)(C)C)c(O)c(C(C)(C)C)c2)cc1C(C)(C)C [Example 128, Carbamic acid, [[2,6-bis(1-methylethyl)phenoxy]sulfonyl]-, 4-[[3,5-bis(1,1-dimethylethyl)-4-hydroxyphenyl]dithio]-2,6-bis(1,1-dimethylethyl)phenyl ester] | < 10%
